Measured values: BigSolDB 2.1

Nc1cccc(C(=O)O)c1O
solubility (mole fraction)
Conditions	293.2 K	298.2 K	303.2 K	308.2 K	313.2 K
in n-propanol	0.000339	0.00046	0.000522	0.00058	0.000681
in water	0.00012	0.000122	0.000139	0.000148	0.000165
